pEC50: −log10 of the molar value. “Also recorded” adds a separate entry of the source.
Key:
[1] = tested on: 20 GPCRs (200 GPCR-Gα strains); test: control dCyFIRscreen profiles against 20 GPCRs (200 GPCR-Gα strains); format: cell-based, human; conditions: 20 GPCRs incl. all 15 constitutively active receptors
Protocol: dCyFIRscreen protocol. Individual Gα reporter strains were grown in SCD LoFo pH=7.0 at 30° C. to an OD=1.0 in a 2.0 mL 96-well DeepWell block (Greiner; 780271-FD). Cells were normalized to an OD of 0.1 in SCD LoFo pH=7.0 using a Biomek NXp liquid-handling robot. 10× ligand/vehicle stocks were prepared (see Table 2) and 4 μL were distributed to each well of a 384-well plate (Greiner; 781096) in quadruplicate using a Biomek NXp. 36 μL normalized cells were distributed to each well containing the appropriate 10× ligand/vehicle. Plates were sealed with a breathable cover (Diversified Biotech; BERM-2000) and incubated at 30° C. Fluorescence readings were collected after 18 hours using a plate reader (ClarioStar, BMG LabTech, Offenburg, Germany) (bottom read, 10 flashes/well, excitation filter: 430-10 nm, dichroic filter: LP 458 nm, emission filter: 482-16 nm, gain=1300 (1500 for FIG. 1B.)). Absorbance readings were also collected after 18 hours using the same instrument (22 flashes/well, excitation filter: 600 nm).

ADRA2B = molecular target: T1, ADRA2B (Homo sapiens, UniProt P18089); test: dCyFIRscreen profiling and titrations in yeast GPCR-Gα reporter strains; format: cell-based
T1 construct: expressed in transfected cells; host or cells: Saccharomyces cerevisiae BY4741-derived GPCR-Gα reporter strains, X-2 landing pad
T1 sequence (P18089 1-450): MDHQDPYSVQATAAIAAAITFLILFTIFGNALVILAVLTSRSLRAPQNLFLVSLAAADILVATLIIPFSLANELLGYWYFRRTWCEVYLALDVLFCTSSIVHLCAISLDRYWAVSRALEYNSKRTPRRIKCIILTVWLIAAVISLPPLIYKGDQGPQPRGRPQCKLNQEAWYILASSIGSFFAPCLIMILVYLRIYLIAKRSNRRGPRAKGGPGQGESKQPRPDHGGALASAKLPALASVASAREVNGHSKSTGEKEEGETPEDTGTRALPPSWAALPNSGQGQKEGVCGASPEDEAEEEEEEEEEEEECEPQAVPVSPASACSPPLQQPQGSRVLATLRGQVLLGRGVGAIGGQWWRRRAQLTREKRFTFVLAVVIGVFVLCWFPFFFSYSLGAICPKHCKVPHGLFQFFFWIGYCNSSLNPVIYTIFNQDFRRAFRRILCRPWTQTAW
Protocol: dCyFIRscreen protocol. […] Cells were normalized to an OD of 0.1 in SCD LoFo pH=7.0 using a Biomek NXp liquid-handling robot. […] 36 μL normalized cells were distributed to each well containing the appropriate 10× ligand/vehicle. Plates were sealed with a breathable cover (Diversified Biotech; BERM-2000) and incubated at 30° C. […] Absorbance readings were also collected after 18 hours using the same instrument (22 flashes/well, excitation filter: 600 nm).
Titration Analyses. All titration curves were analyzed using Prism software and the pharmacological fitting function log(agonist) vs. response—Variable slope (four parameters) (GraphPad Software, San Diego, USA).

S1PR2 = molecular target: T2, S1PR2 (Homo sapiens, UniProt O95136); test: as above; format: cell-based
T2 construct: expressed in transfected cells; host or cells: Saccharomyces cerevisiae BY4741-derived GPCR-Gα reporter strains, X-2 landing pad
T2 sequence (O95136 whole entry): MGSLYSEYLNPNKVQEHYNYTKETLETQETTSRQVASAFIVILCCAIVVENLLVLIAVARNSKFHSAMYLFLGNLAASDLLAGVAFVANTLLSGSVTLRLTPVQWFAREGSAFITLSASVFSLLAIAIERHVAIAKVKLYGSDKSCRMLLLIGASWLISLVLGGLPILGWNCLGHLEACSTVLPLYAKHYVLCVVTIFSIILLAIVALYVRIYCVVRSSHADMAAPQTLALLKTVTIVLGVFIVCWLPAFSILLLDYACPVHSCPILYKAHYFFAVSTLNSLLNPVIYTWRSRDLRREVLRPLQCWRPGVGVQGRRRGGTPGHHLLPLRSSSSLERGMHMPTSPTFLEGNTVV
Protocol: (§1) Individual Gα reporter strains were grown in SCD LoFo pH=7.0 at 30° C. to an OD=1.0 in a 2.0 mL 96-well DeepWell block (Greiner; 780271-FD). Cells were normalized to an OD of 0.1 in SCD LoFo pH=7.0 using a Biomek NXp liquid-handling robot. 10× ligand/vehicle stocks were prepared (see Table 2) and 4 μL were distributed to each well of a 384-well plate (Greiner; 781096) in quadruplicate using a Biomek NXp. 36 μL normalized cells were distributed to each well containing the appropriate 10× ligand/vehicle. Plates were sealed with a breathable cover (Diversified Biotech; BERM-2000) and incubated at 30° C. Fluorescence readings were collected after 18 hours using a plate reader (ClarioStar, BMG LabTech, Offenburg, Germany) (bottom read, 10 flashes/well, excitation filter: 430-10 nm, dichroic filter: LP 458 nm, emission filter: 482-16 nm, gain=1300 (1500 for FIG. 1B.)). Absorbance readings were also collected after 18 hours using the same instrument (22 flashes/well, excitation filter: 600 nm).
(§2) All titration curves were analyzed using Prism software and the pharmacological fitting function log(agonist) vs. response—Variable slope (four parameters) (GraphPad Software, San Diego, USA).

S1PR1 = molecular target: T3, S1PR1 (Homo sapiens, UniProt P21453); test: as above; format: cell-based
T3 construct: expressed in transfected cells; host or cells: Saccharomyces cerevisiae BY4741-derived GPCR-Gα reporter strains, X-2 landing pad
T3 sequence (P21453 whole entry): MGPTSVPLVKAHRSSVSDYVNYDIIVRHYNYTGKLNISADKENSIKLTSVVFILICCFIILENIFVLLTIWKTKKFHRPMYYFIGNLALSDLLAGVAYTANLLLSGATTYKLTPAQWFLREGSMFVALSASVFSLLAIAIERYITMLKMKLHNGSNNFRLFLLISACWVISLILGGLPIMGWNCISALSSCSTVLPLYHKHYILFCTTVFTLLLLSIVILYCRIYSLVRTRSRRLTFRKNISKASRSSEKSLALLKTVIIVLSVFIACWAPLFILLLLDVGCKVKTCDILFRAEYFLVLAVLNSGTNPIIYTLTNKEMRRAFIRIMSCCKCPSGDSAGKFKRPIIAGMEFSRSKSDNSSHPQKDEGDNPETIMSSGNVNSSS
Protocol: as §1, §2

LPAR1 = molecular target: T4, LPAR1 (Homo sapiens, UniProt Q92633); test: as above; format: cell-based
T4 construct: expressed in transfected cells; host or cells: Saccharomyces cerevisiae BY4741-derived GPCR-Gα reporter strains, X-2 landing pad
T4 sequence (Q92633 whole entry): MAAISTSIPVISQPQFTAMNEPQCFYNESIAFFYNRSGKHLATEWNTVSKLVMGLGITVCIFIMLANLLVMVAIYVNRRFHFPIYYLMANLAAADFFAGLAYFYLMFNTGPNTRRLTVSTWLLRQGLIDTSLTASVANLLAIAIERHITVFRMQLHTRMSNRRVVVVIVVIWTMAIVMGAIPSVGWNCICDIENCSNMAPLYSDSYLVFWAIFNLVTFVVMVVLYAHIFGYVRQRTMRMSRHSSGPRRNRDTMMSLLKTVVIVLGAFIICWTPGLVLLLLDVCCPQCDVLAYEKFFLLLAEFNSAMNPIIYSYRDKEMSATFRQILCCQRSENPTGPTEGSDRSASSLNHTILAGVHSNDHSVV
Protocol: as §1, §2

GPR35 = molecular target: T5, GPR35 (Homo sapiens, UniProt Q9HC97); test: as above; format: cell-based
T5 construct: expressed in transfected cells; host or cells: Saccharomyces cerevisiae BY4741-derived GPCR-Gα reporter strains, X-2 landing pad
T5 sequence (Q9HC97 whole entry): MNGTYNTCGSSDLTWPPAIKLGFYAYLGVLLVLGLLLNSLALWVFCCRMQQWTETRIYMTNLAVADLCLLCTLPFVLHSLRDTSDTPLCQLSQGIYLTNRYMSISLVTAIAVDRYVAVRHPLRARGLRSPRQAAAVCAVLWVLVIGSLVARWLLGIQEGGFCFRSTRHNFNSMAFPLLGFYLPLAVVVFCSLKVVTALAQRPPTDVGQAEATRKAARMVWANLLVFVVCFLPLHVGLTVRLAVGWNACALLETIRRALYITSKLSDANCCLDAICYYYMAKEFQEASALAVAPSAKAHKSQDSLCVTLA
Protocol: as §1, §2

GPR68 = molecular target: T6, GPR68 (Homo sapiens, UniProt Q15743); test: as above; format: cell-based
T6 construct: expressed in transfected cells; host or cells: Saccharomyces cerevisiae BY4741-derived GPCR-Gα reporter strains, X-2 landing pad
T6 sequence (Q15743 whole entry): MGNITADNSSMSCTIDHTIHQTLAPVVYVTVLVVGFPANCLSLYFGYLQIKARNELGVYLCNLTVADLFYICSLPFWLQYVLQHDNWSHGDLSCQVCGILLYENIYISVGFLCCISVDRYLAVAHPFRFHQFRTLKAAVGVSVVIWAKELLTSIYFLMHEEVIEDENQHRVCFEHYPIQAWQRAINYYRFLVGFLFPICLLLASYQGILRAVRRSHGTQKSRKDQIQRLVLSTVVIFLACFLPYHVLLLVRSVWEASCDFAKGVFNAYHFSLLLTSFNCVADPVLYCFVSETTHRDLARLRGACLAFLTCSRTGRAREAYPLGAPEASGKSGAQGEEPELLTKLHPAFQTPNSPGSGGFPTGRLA
Protocol: as §1, §2

ADORA2A = molecular target: T7, ADORA2A (Homo sapiens, UniProt P29274); test: as above; format: cell-based
T7 construct: expressed in transfected cells; host or cells: Saccharomyces cerevisiae BY4741-derived GPCR-Gα reporter strains, X-2 landing pad
T7 sequence (P29274 whole entry): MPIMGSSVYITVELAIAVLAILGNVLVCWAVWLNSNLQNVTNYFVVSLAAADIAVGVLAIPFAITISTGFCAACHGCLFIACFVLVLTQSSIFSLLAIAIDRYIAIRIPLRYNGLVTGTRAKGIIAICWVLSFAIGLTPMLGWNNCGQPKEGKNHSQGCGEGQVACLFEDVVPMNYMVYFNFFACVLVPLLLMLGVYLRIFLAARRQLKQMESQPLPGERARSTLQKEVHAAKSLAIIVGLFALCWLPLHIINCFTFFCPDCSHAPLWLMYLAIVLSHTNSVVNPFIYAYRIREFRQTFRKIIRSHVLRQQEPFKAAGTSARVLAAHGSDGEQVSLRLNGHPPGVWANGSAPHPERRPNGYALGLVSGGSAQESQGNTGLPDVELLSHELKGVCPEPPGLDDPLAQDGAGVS
Protocol: as §1, §2

GPR4 = molecular target: T8, GPR4 (Homo sapiens, UniProt P46093); test: dCyFIRscreen profiling in yeast GPCR-Gα reporter strains; format: cell-based
T8 construct: expressed in transfected cells; host or cells: Saccharomyces cerevisiae BY4741-derived GPCR-Gα reporter strains, X-2 landing pad
T8 sequence (P46093 whole entry): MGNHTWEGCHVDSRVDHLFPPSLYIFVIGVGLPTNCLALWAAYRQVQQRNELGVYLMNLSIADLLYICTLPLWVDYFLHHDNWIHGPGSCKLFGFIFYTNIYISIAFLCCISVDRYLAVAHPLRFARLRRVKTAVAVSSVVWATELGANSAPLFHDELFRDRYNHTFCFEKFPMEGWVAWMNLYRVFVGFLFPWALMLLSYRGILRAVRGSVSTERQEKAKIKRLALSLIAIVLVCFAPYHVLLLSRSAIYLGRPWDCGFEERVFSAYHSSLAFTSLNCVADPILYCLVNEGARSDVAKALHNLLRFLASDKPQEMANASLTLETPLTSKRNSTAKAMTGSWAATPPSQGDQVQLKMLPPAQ
Protocol: as §1

HCAR2 = molecular target: T9, HCAR2 (Homo sapiens, UniProt Q8TDS4); test: as above; format: cell-based
T9 construct: expressed in transfected cells; host or cells: Saccharomyces cerevisiae BY4741-derived GPCR-Gα reporter strains, X-2 landing pad
T9 sequence (Q8TDS4 whole entry): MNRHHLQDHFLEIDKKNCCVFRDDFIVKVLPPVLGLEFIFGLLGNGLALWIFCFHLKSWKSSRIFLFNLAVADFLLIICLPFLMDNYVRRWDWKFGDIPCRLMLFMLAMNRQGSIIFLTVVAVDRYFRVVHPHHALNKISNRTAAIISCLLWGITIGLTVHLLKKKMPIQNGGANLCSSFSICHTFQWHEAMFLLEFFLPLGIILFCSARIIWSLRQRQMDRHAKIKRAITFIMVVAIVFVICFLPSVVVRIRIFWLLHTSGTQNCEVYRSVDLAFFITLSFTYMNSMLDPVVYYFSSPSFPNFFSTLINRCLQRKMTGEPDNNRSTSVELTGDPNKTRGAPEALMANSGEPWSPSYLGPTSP
Protocol: as §1

LPAR4 = molecular target: T10, LPAR4 (Homo sapiens, UniProt Q99677); test: as above; format: cell-based
T10 construct: expressed in transfected cells; host or cells: Saccharomyces cerevisiae BY4741-derived GPCR-Gα reporter strains, X-2 landing pad
T10 sequence (Q99677 whole entry): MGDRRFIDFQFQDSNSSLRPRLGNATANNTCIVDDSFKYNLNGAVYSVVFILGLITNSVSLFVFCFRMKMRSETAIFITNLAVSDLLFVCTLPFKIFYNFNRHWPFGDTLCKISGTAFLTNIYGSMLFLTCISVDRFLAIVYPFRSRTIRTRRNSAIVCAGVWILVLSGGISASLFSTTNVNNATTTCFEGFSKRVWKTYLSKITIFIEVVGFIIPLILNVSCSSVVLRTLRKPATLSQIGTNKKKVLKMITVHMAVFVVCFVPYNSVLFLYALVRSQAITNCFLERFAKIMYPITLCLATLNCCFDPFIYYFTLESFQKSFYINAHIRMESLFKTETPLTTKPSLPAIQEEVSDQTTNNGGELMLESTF
Protocol: as §1

HCAR3 [2] = molecular target: T11, HCAR3 (Homo sapiens, UniProt P49019); test: dCyFIRscreen profiling and titrations in yeast GPCR-Gα reporter strains; format: cell-based; parameters: expressed in transfected cells
T11 sequence (P49019 whole entry): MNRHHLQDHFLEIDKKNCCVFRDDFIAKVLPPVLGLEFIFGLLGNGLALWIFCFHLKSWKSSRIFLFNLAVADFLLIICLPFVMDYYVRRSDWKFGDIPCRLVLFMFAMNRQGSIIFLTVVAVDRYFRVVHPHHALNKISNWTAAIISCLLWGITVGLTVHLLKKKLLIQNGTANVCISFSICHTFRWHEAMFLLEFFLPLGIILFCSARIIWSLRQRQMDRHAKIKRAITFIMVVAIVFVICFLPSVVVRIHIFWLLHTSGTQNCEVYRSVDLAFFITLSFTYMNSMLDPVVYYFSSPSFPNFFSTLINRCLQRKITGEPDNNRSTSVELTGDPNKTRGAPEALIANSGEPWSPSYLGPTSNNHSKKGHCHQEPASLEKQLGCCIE
Protocol: as §1, §2

[3] = tested on: 300-plex of GPCR-Gα reporter strains; test: dCyFIRplex FACS sorting of agonist-treated 300-plex; format: cell-based, Saccharomyces cerevisiae; conditions: following agonist treatment
Protocol: dCyFIRplex protocol. […] 10× ligand/vehicle stocks were added to individual wells of a DeepWell block. The consolidated 300-plex or control strains were then added to each well and grown in the presence of ligand/vehicle overnight, so that each culture would reach an OD=4.0 before dCyFIRplex profiling. Samples were washed with sterile ddH2O and normalized to an OD=2.0 in SCD LoFo pH=7.0. Tracer cells were added to each sample at a 1:301 ratio. The final mixture was then transferred into a glass sample tube (USA Scientific; 1450-2810) and used for cell sorting. A BD FACSAria-II cell sorter was used for all dCyFIRplex experiments to assess mTq2 (405 nm excitation, 450/50 nm emission) and mRuby3 fluorescence (535 nm excitation, 610/20 nm emission). A gating strategy was set using the three control samples (DI P1 mTq2, individual Gα reporter strains lacking an integrated receptor, and DI P1 mRuby3) such that tracer cells and any cell expressing mTq2 was sorted into a 14 mL collection tube (USA Scientific; 1485-2810) containing 500 μL YPD. Samples treated with water or 500 μM adenosine (well-characterized using dCyFIRscreen, inexpensive, and water-soluble) were used to build a standard curve measuring total events in the mRuby3 and mTq2 positive gates. The standard curve from a water-treated 300-plex was used to determine the number of tracer events that would correspond to 15,000 events in the mTq2 gate for a water-treated 300-plex. Each sample was sorted until the standardized tracer count was reached. Sorted cells were enriched by outgrowth in 5 mL YPD at 30° C. with shaking (200 rpm) for 18 hours. Cells were harvested by centrifugation at 3,000×g for 5 min, and resuspended in 1 mL ddH2O. Cells were either processed immediately for qPCR deconvolution or frozen in 100 μL aliquots for storage at −20° C. The set of samples comparatively deconvoluted by qPCR and NanoString methods were derived from aliquots of the same dCyFIRplex experiments. […]

HCAR3 [4] = molecular target: T11, HCAR3; conditions: literature value; read-out: EC50 at HCAR3 observed by Colosimo et al.; cited from earlier work

For `C[C@]12CC[C@H](OS(=O)(=O)O)CC1=CC[C@@H]1[C@@H]2CC[C@]2(C)C(=O)CC[C@@H]12` [DHEA-S], the “response in control dCyFIRscreen profiles” value [1] was “Neither of these ligands elicited responses”.
In the case of `CC(C)CCC[C@@H](C)[C@H]1CC[C@H]2[C@@H]3CC=C4C[C@@H](O)CC[C@]4(C)[C@H]3CC[C@]12C` [cholesterol], the “response in control dCyFIRscreen profiles” value [1] was “Neither of these ligands elicited responses”.
For phenylethanolamine [PEOA], the “activity at ADRA2B in words (mode of action, potency range)” value (ADRA2B) was “nanomolar”.
For `CCCCCCCCCCC/C=C\CCCCC(=O)O` [petroselinic acid], the “activity at S1PR2 in words (mode of action, potency range)” value (S1PR2) was “agonist specific for”, the “activity at S1PR1 in words (mode of action, potency range)” value (S1PR1) was “agonist specific for” and the “activity at LPAR1 in words (mode of action)” value (LPAR1) was “agonist specific for”.
For `C[C@]12CC[C@H](O)CC1=CC[C@@H]1[C@@H]2CC[C@]2(C)C(=O)CC[C@@H]12` [DHEA, dehydroepiandrosterone], the “activity at GPR35 in words (mode of action, potency range)” value (GPR35) was “increase receptor signaling; also recorded: PAM-agonist”, the “activity at LPAR1 in words (mode of action)” value (LPAR1) was “increase receptor signaling” and the “activity at GPR68 in words (mode of action)” value (GPR68) was “increase receptor signaling and PAMs”. For the same compound, the “activity at ADORA2A in words (mode of action)” value (ADORA2A) was “increase receptor signaling”, the “activity at GPR4 in words (mode of action)” value (GPR4) was “increase receptor signaling and PAMs” and the “activity at HCAR2 in words (mode of action)” value (HCAR2) was “increase receptor signaling”. For the same compound, the “activity at LPAR4 in words (mode of action)” value (LPAR4) was “increase receptor signaling” and the “activity at HCAR3 in words (mode of action, potency range)” value (HCAR3 [2]) was “increase receptor signaling and PAM-agonist and PAMs”.
For `COc1ccc2[nH]cc(CCNC(C)=O)c2c1` [melatonin], the “active cell pool, fraction of cell-sorting events for the 300-plex” value [3] was 1.0%.
With `NCCc1ccccc1` [PEA, phenethylamine] the “activity at ADRA2B in words (mode of action, potency range)” value (ADRA2B) was “micromolar”.
For `O=C(O)CCc1ccccc1` [phenylpropanoic acid], the pEC50 (HCAR3 [4]) is given as 3.68.
With `C[C@H](N)C(=O)NCC(=O)N[C@H]1CSSC[C@@H](C(=O)O)NC(=O)[C@H](CO)NC(=O)[C@H]([C@@H](C)O)NC(=O)[C@H](Cc2ccccc2)NC(=O)[C@H]([C@@H](C)O)NC(=O)[C@H](CCCCN)NC(=O)[C@H](Cc2c[nH]c3ccccc23)NC(=O)[C@H](Cc2ccccc2)NC(=O)[C@H](Cc2ccccc2)NC(=O)[C@H](CC(N)=O)NC(=O)[C@H](CCCCN)NC1=O` [SRIF-14, Somatostatin-14] the “active cell pool, fraction of cell-sorting events for the 300-plex” value [3] was 1.5%.
